This is an account of results in patent US6265413A, “Camptothecin compounds and a method of preparation thereof” (priority 1995, dated 2001).

One data set deals with L1210 leukemia. In words: Prolongation effects of life span against L1210-bearing mice. It is filed as in vivo, BDF1 mice. The note with it: for 30 days survivor / ILS(%) / Survival days MST / B.W. Change: i.p., days 1, 3, 5; for B.W. Change: day 1 to day 5. As to the method: Antitumor activities were measured through the experiments on prolongation effects of life span against L1210-bearing mice and tumor growth inhibitory effects against B16-bearing mice. To evaluate the antitumor activities on L1210 leukemia, a certain number of L1210 cells (in vitro) was intraperitoneally inoculated for propagation and the L1210 cells in ascites were harvested from animals sacrificed by cervical dislocation on 7th day after tumor was implanted.
(§1) Male BDF1 mice, weighing about 20 grams, were used. Animal rooms were controlled at 23±2° C. and 60±5% relative humidity, under HEPA filter, and maintained in specific pathogen free (SPF).
5×10^5 of L1210 leukemia cell, obtained in vitro form, were intraperitoneally inoculated in BDF1 mice for propagation. The L1210 tumor cells in ascites were aseptically harvested from BDF1 mice sacrificed by cervical dislocation on 7th day after tumor implantation.
The tumor cells were passaged at least three times prior to use in the test.
5×10^5 cell were intraperitoneally inoculated into BDF1 mice on day 0 and the sample ([…]) were intraperitoneally administration on days 1, 3 and 5. six mice were used for each experimental group.
Antitumor activities were evaluated by the mean survival time of a group of mice and also expressed by the ILS(%) value and the mean animal weights for day 1 and day 5.
Increased Life span (ILS)
ILS(%)={(MST of sample treated group/MST of solvent group)-1}×100

The test system of a further data set is B16 melanoma. It is filed as in vivo, BDF1 mice. The note with it: for IR (%) on tumor size / IR (%) on tumor weight / Tumor weight day 20 / Tumor size day 8 / Tumor size day 12 / Tumor size day 16 / Tumor size day 20: days 8, 12, 16; for IR (%) on tumor size / IR (%) on tumor weight: day 20; for Tumor weight day 20: in g (unit assumed); for Tumor size day 8 / Tumor size day 12 / Tumor size day 16 / Tumor size day 20: in mm³ (unit assumed). As for the experimental part: To investigate tumor growth inhibitory effects against B16 melanoma, a certain number of B16 cells(in vitro) was subcutaneously inoculated for propagation and tumor cells were resected from animals scrificed by cervical dislocation on 14th day after tumor was implanted.
as §1
10^6 of B16 melanoma cell, obtained in vitro form, were subcutaneously in BDF1 mice for propagation. The B16 melanomas were transfered on day 14. The fresh tumors except for necrotized center were aseptically resected from tumor-bearing mice sacrificed by cervical dislocation.
The tumor cells were passaged at least […] three times prior to use in the test.
1 g subcutaneously donor tumor to be subcutaneously was homogenized in cold sterilized saline to give a final concentration of 1 g/10 ml. The 1:10 tumor suspension is injected into all BDF1 mice subcutaneously using 0.2 ml/mouse.
The mice were subcutaneously implanted with such homogenized solution and 7 to 8th day after the tumor implantation, the mice having a certain size of tumors were selected for experiments. Each experimental group were administered with the sample (0.1 ml/10 g) on 8th, 12th and 16th day after the inoculation of tumor. Eight mice were used for each experimental group.
The size of the tumors was calculated by direct measurement of the diameter of the tumors, using the formula.
Where b is the largest diameter and a is the diameter perpendicular to b and growth curves were thus obtained. (FIG. 2)
The inhibition rate of tumor growth on the basis of tumor size was calculated according to the formula.
TWt is the mean tumor volume(weight) of sample-treated groups.
TWc is the mean tumor volume(weight) of control group.

The conditions of data set [1]: background art; cited from earlier work.
A further data set concerns topoisomerase I. The note with it: background art; cited from earlier work.

Entries after “also recorded” stand apart in the source; their conditions may differ. Read-outs that look alike come from different tables or passages of the source.

`CCC1(O)C(=O)OCc2c1cc1n(c2=O)Cc2c-1nc1ccccc1c2CCN(Cc1ccccc1)C(=O)OCc1ccccc1` (racemic) [Example 18, dl-7-[2-(N-benzyl-N-carbobenzyloxyamino)ethyl]camptothecin]: in the data set with L1210 leukemia (total dose 10 mg/kg), the 30 days survivor is on record as 0/6, the “ILS(%)” value was 33%, the “Survival days MST” value was determined as 13.00 days and the “B.W. Change” value was -0.25 g. Also, in the data set on L1210 leukemia (total dose 50 mg/kg), the 30 days survivor is 0/6, the “ILS(%)” value is given as 64%, the “Survival days MST” value came to 16.00 days and the “B.W. Change” value is on record as -0.80 g.
In the case of `CCC1(O)C(=O)OCc2c1cc1n(c2=O)Cc2c-1nc1ccccc1c2CCNCc1ccccc1` (racemic) [Example 26, dl-7-[2-(N-benzylamino)ethyl]camptothecin], in the data set on L1210 leukemia (total dose 10 mg/kg), the 30 days survivor was 0/6, the “ILS(%)” value is given as 72%, the “Survival days MST” value was determined as 15.67 days and the “B.W. Change” value is given as -0.09 g. In the data set with L1210 leukemia (total dose 50 mg/kg), the 30 days survivor is 0/6, the “ILS(%)” value worked out at 75%, the “Survival days MST” value was 16.00 days and the “B.W. Change” value is -0.57 g.
For the molecule `CCC1(O)C(=O)OCc2c1cc1n(c2=O)Cc2c-1nc1ccccc1c2CCNC(C)C` (racemic) [Example 30, dl-7-[2-(N-isopropylamino)ethyl]camptothecin], in the data set on B16 melanoma (35 mg/kg), the “IR (%) on tumor size” value came out at 27%, the “IR (%) on tumor weight” value was found to be 40%, the “Tumor weight day 20” value is reported as 2.34 ± 0.44 and the “Tumor size day 8” value is 86.93 ± 11.34. Further, in the data set with B16 melanoma (35 mg/kg), the “Tumor size day 12” value stood at 411.88 ± 71.52, the “Tumor size day 16” value stood at 1234.65 ± 182.64 and the “Tumor size day 20” value was determined as 3061.34 ± 752.34. In the data set with B16 melanoma (70 mg/kg), the “IR (%) on tumor size” value stood at 54.8%, the “IR (%) on tumor weight” value turned out to be 56%, the “Tumor weight day 20” value was 1.71 ± 0.18 and the “Tumor size day 8” value turned out to be 86.21. In the data set on B16 melanoma (70 mg/kg), the “Tumor size day 12” value is 320.06, the “Tumor size day 16” value is on record as 870.46 and the “Tumor size day 20” value was 1897.88. Further, in the data set on B16 melanoma (140 mg/kg), the “IR (%) on tumor size” value worked out at 67.72%, the “IR (%) on tumor weight” value is given as 71.6%, the “Tumor weight day 20” value is on record as 1.11 ± 0.21 and the “Tumor size day 8” value is 86.94 ± 9.34. Also, in the data set on B16 melanoma (140 mg/kg), the “Tumor size day 12” value was found to be 328.98 ± 76.57, the “Tumor size day 16” value came out at 695.75 ± 82.77 and the “Tumor size day 20” value came out at 1353.91 ± 134.36. Moreover, the “antitumor activity, comparison in words” value in the data set on B16 melanoma (ascites and solid type tumor, compared with camptothecin) is “better antitumor activity on ascites tumor and solid type tumor”. For the same molecule, the “toxicity and safety margin, comparison in words” value with B16 melanoma (mouse, in vivo) was “less toxicity and a wide range of safety margin”. In addition, in the data set with L1210 leukemia (compared with other compounds / camptothecin (FIG. 1)), the “ILS(%) and dose range, comparison in words” value was “better dose dependency and ILS(%) than other compound; also recorded: higher ILS(%) and wider range where the effect was siginificant”. Further, in the data set with L1210 leukemia (total dose 8.75 mg/kg), the 30 days survivor is 0/6, the “ILS(%)” value was 58.7%, the “Survival days MST” value was 15.67 days and the “B.W. Change” value was “+0.7 g”. In the data set on L1210 leukemia (total dose 10 mg/kg), the 30 days survivor is on record as 0/6, the “ILS(%)” value is 42%, the “Survival days MST” value was 13.00 days and the “B.W. Change” value was -0.71 g. Also, in the data set on L1210 leukemia (total dose 17.5 mg/kg), the 30 days survivor is listed as 0/6, the “Survival days MST” value is listed as 17.75 days and the “B.W. Change” value was “+0.45 g”. In the data set with L1210 leukemia (total dose 35 mg/kg), the 30 days survivor was 0/6, the “ILS(%)” value was 92.4%, the “Survival days MST” value is listed as 19.00 days and the “B.W. Change” value is -0.12 g. Moreover, in the data set with L1210 leukemia (total dose 50 mg/kg), the 30 days survivor is recorded as 0/6, the “ILS(%)” value was 119%, the “Survival days MST” value turned out to be 20.00 days and the “B.W. Change” value was -0.57 g. Moreover, in the data set on L1210 leukemia (total dose 70 mg/kg), the 30 days survivor is reported as 0/6, the “ILS(%)” value is reported as 143%, the “Survival days MST” value turned out to be 24.00 days and the “B.W. Change” value is listed as -0.79 g. In addition, in the data set with L1210 leukemia (total dose 140 mg/kg), the 30 days survivor was 0/6, the “ILS(%)” value was 110%, the “Survival days MST” value came out at 20.75 days and the “B.W. Change” value is -0.93 g.
Turning to `CCc1c2c(nc3ccc(OC(=O)N4CCC(N5CCCCC5)CC4)cc13)-c1cc3c(c(=O)n1C2)COC(=O)[C@]3(O)CC` [CPT-11], in data set [1], the “antineoplastic activity in clinical trial / treatment” value is on record as “excellent antineoplastic activities”.
Take `CC[C@@]1(O)C(=O)OCc2c1cc1n(c2=O)Cc2cc3ccccc3nc2-1` [Camptothecin, camptothecin]: the “toxicity in clinical trial” value in data set [1] is “severe toxicity”. In addition, in the data set with B16 melanoma (10 mg/kg), the “IR (%) on tumor size” value is on record as 57.8%, the “IR (%) on tumor weight” value is reported as 59%, the “Tumor weight day 20” value is reported as 1.61 ± 0.30 and the “Tumor size day 8” value is reported as 85.95 ± 13.15. Besides, in the data set on B16 melanoma (10 mg/kg), the “Tumor size day 12” value was determined as 458.56 ± 53.87, the “Tumor size day 16” value turned out to be 1035.98 ± 129.36 and the “Tumor size day 20” value is reported as 1775.50 ± 300.91. Also, the “mode of action on topoisomerase I” value with topoisomerase I is on record as “specific mode of action to inhibit topoisomerase I; also recorded: binds covalently with topoisomerase I”.
